Literature values, collected in PMC7941644, “Identification and Development of Therapeutics for COVID-19” (ArXiv, 2021).

System: SARS-CoV-2

## CCC(CC)COC(=O)[C@H](C)N[P@](=O)(OC[C@H]1O[C@@](C#N)(c2ccc3c(N)ncnn23)[C@H](O)[C@@H]1O)Oc1ccccc1 [remdesivir]
  inhibition of SARS-CoV-2 in vitro: inhibit SARS-CoV-2, showing synergy with CQ in vitro
